Tests used:
[1] = test system: Echinochloa oryzoides (Ard.) Fritsch.; assay: Preemergence weed control under flooded paddy conditions, ECHORC (Watergrass (Calif.)); type: in vivo; settings: flooded paddy; for ECHORC herbicidal effect rating / ECHORC herbicidal rating / herbicidal effect rating, ECHORC: preemergence, rated three to four weeks after treatment; for ECHORC: preemergence weeds, herbicidal effect rating 0-9, three to four weeks after treatment; as to herbicidal effect rating, ECHORC: meaning of each grade not given here
Cyperus iria = assay: Preemergence weed control under flooded paddy conditions, CYPIR (Rice Flatsedge); type: in vivo; settings: flooded paddy; for CYPIR herbicidal effect rating / CYPIR herbicidal rating / herbicidal effect rating, CYPIR: preemergence, rated three to four weeks after treatment; for CYPIR: preemergence weeds, herbicidal effect rating 0-9, three to four weeks after treatment; as to herbicidal effect rating, CYPIR: meaning of each grade not given here
[2] = test system: Cyperus serotinus, Rottb.; assay: Preemergence weed control under flooded paddy conditions, CYPSE (Flatsedge); type: in vivo; settings: for CYPSE: preemergence weeds, herbicidal effect rating 0-9, three to four weeks after treatment; as to herbicidal effect rating, CYPSE: meaning of each grade not given here
[3] = test system: Monochoria vaginalis, Presl.; assay: Preemergence weed control under flooded paddy conditions, MOOVA (Monochoria); type: in vivo; settings: flooded paddy; for MOOVA herbicidal effect rating / MOOVA herbicidal rating / herbicidal effect rating, MOOVA: preemergence, rated three to four weeks after treatment; for MOOVA: preemergence weeds, herbicidal effect rating 0-9, three to four weeks after treatment; as to herbicidal effect rating, MOOVA: meaning of each grade not given here
Sagittaria pygmaea, L. = assay: Preemergence weed control under flooded paddy conditions, SAGPY (Arrowhead (Pygmaea)); type: in vivo; settings: flooded paddy; for SAGPY herbicidal effect rating / SAGPY herbicidal rating / herbicidal effect rating, SAGPY: preemergence, rated three to four weeks after treatment; for SAGPY: preemergence weeds, herbicidal effect rating 0-9, three to four weeks after treatment; as to herbicidal effect rating, SAGPY: meaning of each grade not given here
[4] = test system: Oryza sativa, (L.) Tebonnet; assay: Rice tolerance to post-transplant applications under flooded paddy conditions (Example 187), ORYSAT (Rice, Tebonnet); settings: for ORYSAT herbicidal effect rating / ORYSAT herbicidal rating (rice tolerance) / herbicidal effect rating, ORYSAT (rice tolerance): rated three to four weeks after treatment; for ORYSAT: herbicidal effect rating 0-9, three to four weeks after treatment
[5] = Rate 0.1250 kg/ha, preemergence, rated three to four weeks after treatment
[6] = Rate 0.2500 kg/ha, preemergence, rated three to four weeks after treatment

C=CCCOCc1nsc2ccc(-n3c(=O)cc(C(F)(F)F)n(C)c3=O)cc12 [Example 223, 3-{3-[(3-Butenyloxy)methyl]-1,2-benzisothiazol-5-yl}-1-methyl-6-(trifluoromethyl)-2,4(1H,3H)-pyrimidinedione]
0.0: CYPSE herbicidal effect rating ([2]; Rate 0.0313 kg/ha, preemergence, rated three to four weeks after treatment) | SAGPY herbicidal effect rating (Sagittaria pygmaea, L.; Rate 0.0313 kg/ha)
9.0: ECHORC herbicidal effect rating ([1]; Rate 0.2500 kg/ha) | CYPIR herbicidal effect rating (Cyperus iria; Rate 0.2500 kg/ha) | MOOVA herbicidal effect rating ([3]; Rate 0.0313 kg/ha) | MOOVA herbicidal effect rating ([3]; Rate 0.0625 kg/ha) | MOOVA herbicidal effect rating ([3]; Rate 0.1250 kg/ha) | MOOVA herbicidal effect rating ([3]; Rate 0.2500 kg/ha) | SAGPY herbicidal effect rating (Sagittaria pygmaea, L.; Rate 0.2500 kg/ha) | ORYSAT herbicidal effect rating ([4]; Rate 0.2500 kg/ha)
7.0: CYPIR herbicidal effect rating (Cyperus iria; Rate 0.0625 kg/ha) | CYPIR herbicidal effect rating (Cyperus iria; Rate 0.1250 kg/ha) | ORYSAT herbicidal effect rating ([4]; Rate 0.0313 kg/ha)
6.0: ECHORC herbicidal effect rating ([1]; Rate 0.0313 kg/ha) | ECHORC herbicidal effect rating ([1]; Rate 0.0625 kg/ha) | CYPSE herbicidal effect rating [2, 5] | SAGPY herbicidal effect rating (Sagittaria pygmaea, L.; Rate 0.1250 kg/ha)
4.0: CYPIR herbicidal effect rating (Cyperus iria; Rate 0.0313 kg/ha) | CYPSE herbicidal effect rating ([2]; Rate 0.0625 kg/ha, preemergence, rated three to four weeks after treatment)
8.0: ECHORC herbicidal effect rating ([1]; Rate 0.1250 kg/ha) | CYPSE herbicidal effect rating [2, 6] | ORYSAT herbicidal effect rating ([4]; Rate 0.0625 kg/ha) | ORYSAT herbicidal effect rating ([4]; Rate 0.1250 kg/ha)
2.0: SAGPY herbicidal effect rating (Sagittaria pygmaea, L.; Rate 0.0625 kg/ha)

CC(C)NS(=O)(=O)NC(=O)c1nsc2ccc(-n3c(=O)cc(C(F)(F)F)n(C)c3=O)cc12 [Example 508, 1,2-Benzisothiazole-3-carboxamide, 5-[3,6-dihydro-3-methyl-2,6-dioxo-4-(trifluoromethyl)-1(2H)-pyrimidinyl]-N-(isopropylsulfamoyl)-]
2.0: ECHORC herbicidal rating ([1]; 0.0320 kg/ha) | ORYSAT herbicidal rating (rice tolerance) ([4]; 0.0620 kg/ha)
0.0: CYPSE herbicidal rating ([2]; 0.0320 kg/ha, preemergence, rated three to four weeks after treatment) | ORYSAT herbicidal rating (rice tolerance) ([4]; 0.0320 kg/ha)
7.0: CYPIR herbicidal rating (Cyperus iria; 0.0620 kg/ha) | CYPIR herbicidal rating (Cyperus iria; 0.1250 kg/ha)
5.0: ECHORC herbicidal rating ([1]; 0.0620 kg/ha) | SAGPY herbicidal rating (Sagittaria pygmaea, L.; 0.0320 kg/ha) | ORYSAT herbicidal rating (rice tolerance) ([4]; 0.1250 kg/ha)
6.0: ECHORC herbicidal rating ([1]; 0.1250 kg/ha) | CYPIR herbicidal rating (Cyperus iria; 0.0320 kg/ha) | SAGPY herbicidal rating (Sagittaria pygmaea, L.; 0.0620 kg/ha) | ORYSAT herbicidal rating (rice tolerance) ([4]; 0.2500 kg/ha)
9.0: ECHORC herbicidal rating ([1]; 0.2500 kg/ha) | CYPIR herbicidal rating (Cyperus iria; 0.2500 kg/ha) | MOOVA herbicidal rating ([3]; 0.0320 kg/ha) | MOOVA herbicidal rating ([3]; 0.0620 kg/ha) | MOOVA herbicidal rating ([3]; 0.1250 kg/ha) | MOOVA herbicidal rating ([3]; 0.2500 kg/ha) | SAGPY herbicidal rating (Sagittaria pygmaea, L.; 0.1250 kg/ha) | SAGPY herbicidal rating (Sagittaria pygmaea, L.; 0.2500 kg/ha)

Cc1ccc(OCC(=O)OC(C)(C)C)c(-c2nsc3ccc(-n4c(=O)cc(C(F)(F)F)n(C)c4=O)cc23)c1 [Example 68, tert -Butyl {{2-{5-[3,6-dihydro-3-methyl-2,6-dioxo-4-(trifluoromethyl)-1(2H)-pyrimidinyl]-1,2-benzisothiazol-3-yl}-p-tolyl}oxy}acetate]
0.0: herbicidal effect rating, SAGPY (Sagittaria pygmaea, L.; 0.0313 kg/ha) | herbicidal effect rating, SAGPY (Sagittaria pygmaea, L.; 0.0625 kg/ha)
1.5: herbicidal effect rating, ORYSAT (rice tolerance) ([4]; 0.1250 kg/ha)
2.0: herbicidal effect rating, SAGPY (Sagittaria pygmaea, L.; 0.1250 kg/ha) | herbicidal effect rating, SAGPY (Sagittaria pygmaea, L.; 0.2500 kg/ha)
0.5: herbicidal effect rating, ORYSAT (rice tolerance) ([4]; 0.0313 kg/ha)
6.0: herbicidal effect rating, CYPSE ([2]; 0.0313 kg/ha, preemergence, rated three to four weeks after treatment)
1.0: herbicidal effect rating, ORYSAT (rice tolerance) ([4]; 0.0625 kg/ha) | herbicidal effect rating, ORYSAT (rice tolerance) ([4]; 0.2500 kg/ha)
9.0: herbicidal effect rating, ECHORC ([1]; 0.0625 kg/ha) | herbicidal effect rating, ECHORC ([1]; 0.1250 kg/ha) | herbicidal effect rating, ECHORC ([1]; 0.2500 kg/ha) | herbicidal effect rating, CYPIR (Cyperus iria; 0.0625 kg/ha) | herbicidal effect rating, CYPIR (Cyperus iria; 0.1250 kg/ha) | herbicidal effect rating, CYPIR (Cyperus iria; 0.2500 kg/ha) | herbicidal effect rating, MOOVA ([3]; 0.0313 kg/ha) | herbicidal effect rating, MOOVA ([3]; 0.0625 kg/ha) | herbicidal effect rating, MOOVA ([3]; 0.1250 kg/ha) | herbicidal effect rating, MOOVA ([3]; 0.2500 kg/ha)
7.5: herbicidal effect rating, ECHORC ([1]; 0.0313 kg/ha)
7.0: herbicidal effect rating, CYPIR (Cyperus iria; 0.0313 kg/ha) | herbicidal effect rating, CYPSE ([2]; 0.0625 kg/ha, preemergence, rated three to four weeks after treatment) | herbicidal effect rating, CYPSE ([2]; 0.2500 kg/ha, preemergence, rated three to four weeks after treatment)

Cn1c(C(F)(F)F)cc(=O)n(-c2ccc3snc(C4(C#N)CC4)c3c2)c1=O [Example 446, Cyclopropanecarbonitrile, 1-{5-[3,6-dihydro-3-methyl-2,6-dioxo-4-(trifluoromethyl)-1(2H)-pyrimidinyl]-1,2-benzisothiazol-3-yl}-]
9.0: ECHORC ([1]; 0.2500 kg/ha) | CYPIR (Cyperus iria; 0.0320 kg/ha) | CYPIR (Cyperus iria; 0.0620 kg/ha) | CYPIR (Cyperus iria; 0.1250 kg/ha) | CYPIR (Cyperus iria; 0.2500 kg/ha) | CYPSE ([2]; 0.0320 kg/ha) | CYPSE ([2]; 0.0620 kg/ha) | CYPSE ([2]; 0.1250 kg/ha) | CYPSE ([2]; 0.2500 kg/ha) | MOOVA ([3]; 0.0320 kg/ha) | MOOVA ([3]; 0.0620 kg/ha) | MOOVA ([3]; 0.1250 kg/ha) | MOOVA ([3]; 0.2500 kg/ha) | SAGPY (Sagittaria pygmaea, L.; 0.0320 kg/ha) | SAGPY (Sagittaria pygmaea, L.; 0.0620 kg/ha) | SAGPY (Sagittaria pygmaea, L.; 0.1250 kg/ha) | SAGPY (Sagittaria pygmaea, L.; 0.2500 kg/ha) | ORYSAT ([4]; 0.1250 kg/ha) | ORYSAT ([4]; 0.2500 kg/ha)
7.0: ECHORC ([1]; 0.1250 kg/ha) | ORYSAT ([4]; 0.0620 kg/ha)
6.0: ECHORC ([1]; 0.0320 kg/ha) | ECHORC ([1]; 0.0620 kg/ha) | ORYSAT ([4]; 0.0320 kg/ha)

Cn1c(C(F)(F)F)cc(=O)n(-c2ccc3snc(C=C(Cl)Cl)c3c2)c1=O [Example 287, 2,4(1H,3H)-Pyrimidinedione, 3-[3-(2,2-dichlorovinyl)-1,2-benzisothiazol-5-yl]-1-methyl-6-(trifluoromethyl)-]
0.0: ECHORC herbicidal effect rating ([1]; Rate 0.0320 kg/ha) | CYPIR herbicidal effect rating (Cyperus iria; Rate 0.0320 kg/ha) | CYPSE herbicidal effect rating ([2]; Rate 0.0320 kg/ha, preemergence, rated three to four weeks after treatment) | CYPSE herbicidal effect rating ([2]; Rate 0.0620 kg/ha, preemergence, rated three to four weeks after treatment) | CYPSE herbicidal effect rating [2, 5] | SAGPY herbicidal effect rating (Sagittaria pygmaea, L.; Rate 0.0320 kg/ha) | SAGPY herbicidal effect rating (Sagittaria pygmaea, L.; Rate 0.0620 kg/ha) | SAGPY herbicidal effect rating (Sagittaria pygmaea, L.; Rate 0.1250 kg/ha) | SAGPY herbicidal effect rating (Sagittaria pygmaea, L.; Rate 0.2500 kg/ha) | ORYSAT herbicidal effect rating ([4]; Rate 0.0320 kg/ha)
4.0: CYPSE herbicidal effect rating [2, 6]
5.0: ECHORC herbicidal effect rating ([1]; Rate 0.1250 kg/ha) | ORYSAT herbicidal effect rating ([4]; Rate 0.2500 kg/ha)
9.0: CYPIR herbicidal effect rating (Cyperus iria; Rate 0.0620 kg/ha) | CYPIR herbicidal effect rating (Cyperus iria; Rate 0.1250 kg/ha) | CYPIR herbicidal effect rating (Cyperus iria; Rate 0.2500 kg/ha) | MOOVA herbicidal effect rating ([3]; Rate 0.0320 kg/ha) | MOOVA herbicidal effect rating ([3]; Rate 0.0620 kg/ha) | MOOVA herbicidal effect rating ([3]; Rate 0.1250 kg/ha) | MOOVA herbicidal effect rating ([3]; Rate 0.2500 kg/ha)
3.0: ORYSAT herbicidal effect rating ([4]; Rate 0.0620 kg/ha) | ORYSAT herbicidal effect rating ([4]; Rate 0.1250 kg/ha)
2.0: ECHORC herbicidal effect rating ([1]; Rate 0.0620 kg/ha)
7.0: ECHORC herbicidal effect rating ([1]; Rate 0.2500 kg/ha)

CN(Cc1ccc(Cl)cc1)S(=O)(=O)NC(=O)c1nsc2ccc(-n3c(=O)cc(C(F)(F)F)n(C)c3=O)cc12 [Example 420, 1,2-Benzisothiazole-3-carboxamide, N-[(p-chlorobenzyl)methylsulfamoyl]-5-[3,6-dihydro-3-methyl-2,6-dioxo-4-(trifluoromethyl)-1(2H)-pyrimidinyl]-]
4.0: CYPIR (Cyperus iria; 0.0620 kg/ha)
2.0: CYPIR (Cyperus iria; 0.0320 kg/ha) | SAGPY (Sagittaria pygmaea, L.; 0.1250 kg/ha) | ORYSAT ([4]; 0.0620 kg/ha)
5.0: ORYSAT ([4]; 0.2500 kg/ha)
3.0: SAGPY (Sagittaria pygmaea, L.; 0.2500 kg/ha) | ORYSAT ([4]; 0.1250 kg/ha)
0.0: CYPSE ([2]; 0.2500 kg/ha) | SAGPY (Sagittaria pygmaea, L.; 0.0320 kg/ha) | SAGPY (Sagittaria pygmaea, L.; 0.0620 kg/ha) | ORYSAT ([4]; 0.0320 kg/ha)
6.0: CYPIR (Cyperus iria; 0.1250 kg/ha) | CYPIR (Cyperus iria; 0.2500 kg/ha)
9.0: MOOVA ([3]; 0.0320 kg/ha) | MOOVA ([3]; 0.0620 kg/ha) | MOOVA ([3]; 0.1250 kg/ha) | MOOVA ([3]; 0.2500 kg/ha)
7.0: ECHORC ([1]; 0.0320 kg/ha) | ECHORC ([1]; 0.0620 kg/ha) | ECHORC ([1]; 0.1250 kg/ha) | ECHORC ([1]; 0.2500 kg/ha)

From patent EP0908457B1, “3-(1,2-benzisothiazol- and isoxazol-5-Y1)-2,4(1H,3H)-pyrimidinedione or thione and 3-(1,2-benzisothiazol- and isoxazol-5-y1)-4(3H)-pyrimidinone or thione herbicidal agents” (BASF AKTIENGESELLSCHAFT, priority 1997, dated 1999)
